Test results published in patent US20210403864A1, “METHODS AND COMPOSITIONS FOR TREATING ACTIVATED G-ALPHA Q MUTANT CANCERS OR MELANOCYTIC MALIGNANCIES” (Memorial Sloan Kettering Cancer Center, priority 2018, published 2021).
Positions count from the first letter of the chain named.

Tests used:
Experiment in all cases: IP1 accumulation assay in mutation dependent melan-a cells
Format in all cases: cell-based, mouse
GNAQ^R183Q = biological target: T1, GNAQ^R183Q (Homo sapiens, UniProt P50148, R183Q)
T1 construct: host or cells: melan-a (immortalized mouse melanocytes), retroviral transduction with MSCV-Puro
T1 sequence (P50148 1-359 R183Q): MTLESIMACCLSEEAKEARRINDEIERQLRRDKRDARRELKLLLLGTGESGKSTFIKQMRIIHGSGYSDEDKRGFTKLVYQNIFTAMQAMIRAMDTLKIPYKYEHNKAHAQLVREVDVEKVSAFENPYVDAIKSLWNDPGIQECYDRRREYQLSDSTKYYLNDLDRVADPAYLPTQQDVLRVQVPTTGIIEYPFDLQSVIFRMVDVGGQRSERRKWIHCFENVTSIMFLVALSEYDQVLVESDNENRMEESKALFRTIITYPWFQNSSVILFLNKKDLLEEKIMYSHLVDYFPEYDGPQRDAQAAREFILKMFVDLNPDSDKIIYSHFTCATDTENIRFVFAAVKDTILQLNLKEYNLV
Protocol: (§1) Cells were treated with increasing concentrations of YM-254890 (YM) for 3 hours (top) and 24 hours (bottom). Error bars, s.e.m. from three biological replicates, each with three technical replicates.
(§2) Cell Culture and in vitro analysis. Mutation dependent melan-a cells were generated by transducing cells with cDNAs in MSCV-PURO (retrovirus) and then selecting cells with puromycin (1 μg/ml) for two days. TPA (Sigma-Aldrich, St. Louis, Mo.) was then withdrawn from cultures. Cells with activating mutations (CYSLTR2^L129Q, GNAQ^G48V/R183Q/Q209L, KRAS^G12V, and BRAF^V600E) continued to proliferate over several passages (>2 weeks) and were then validated with qRT-PCR and immunoblots. Vector and WT controls were unable to maintain proliferation after a couple passages upon TPA withdrawal. All cells were cultured in media containing 10% FBS, L-glutamine ([…]), penicillin (100 U/ml), streptomycin (100 μg/ml). Melan-a cells provided by D. Bennett, St. George's Hospital, University of London (Johnson C P, et al., PLoS One. 12(6):1-17 (2017)), were cultured in RPMI supplemented with 200 nM TPA unless otherwise noted. HEK293T (from ATCC, Manassas, Va.) cells were cultured in DMEM-Q and UVM cells were cultured in RPMI. All cells tested negative for mycoplasma. Cell growth assays and YM dose response curves were assayed using CellTiter-glo 2.0 (Promega, Madison, Wis.) at given time points or after five days of incubation with YM and readout on a Glomax Luminometer (Promega, Madison, Wis.). IC50 values were calculated using Prism 7.0 software. Growth assays were compared to day 1 readings and dose response curves were compared to vehicle. Data shown is representative of at least three independent experiments with at least three technical replicates. Dose-response curves and growth assays were analyzed using GraphPad Prism 7.0 software.
(§3) IP1 Accumulation Assay. IP1 concentrations in GNAQ-transfected HEK293T cells, GNAQ-expressing melan-a cells and uveal melanoma cells was measured using a competitive homogenous time resolved fluorescence (HTRF) assay (CisBio, Bedford, Mass.). Briefly, 9,000 transiently transfected-HEK293T cells, 5,000 melan-a cells and 5,000 uveal melanoma cells were seeded in low-volume 384-well plates in 7 μL media for 24 hours prior YM-254890 treatment. Cells were then treated with various concentrations of YM-254890 diluted in the appropriate media at 37° C. for 3 hours or 24 hours. 1 h prior lysis, cells were supplemented with 1× Stimulation Buffer provided by the manufacturer (HEPES 10 mM, CaCl2) 1 mM, MgCl2 0.5 mM, KCl 4.2 mM, NaCl 146 mM, glucose 5.5 mM, LiCl 50 mM, pH 7.4) with 0.2% BSA and 50 mM of LiCl (to prevent IP1 degradation). Following incubation, cells were lysed by adding 3 μL/well of d2-labeled IP1 analogue as the fluorescence acceptor and the Terbium cryptate-labeled anti-IP1 mAb as the fluorescence donor, diluted in the kit-supplied lysis buffer. The plates were incubated overnight at RT and time-resolved fluorescence signals were read using the BioTek Synergy NEO plate reader (BioTek Instruments, Winooski, Vt.) at 620 nm and […]. Results were calculated as a 665 nm/620 nm signal ratio, and IP1 concentrations were interpolated from a standard curve prepared using the supplied IP1 calibrator. Results are shown as IP1 (nM). Dose-response curves and bar graphs were analyzed using GraphPad Prism 7.0 software.

GNAQ^Q209L = biological target: T2, GNAQ^Q209L (Homo sapiens, UniProt P50148, Q209L)
T2 construct: host or cells: melan-a (immortalized mouse melanocytes), retroviral transduction with MSCV-Puro
T2 sequence (P50148 1-359 Q209L): T1 sequence (P50148 1-359 R183Q) with Q183R, Q209L
Protocol: as §1, §2, §3

CYSLTR2^L129Q = conditions: 24-hour treatment
Protocol: as §1, §2, §3

## YM-254890
GNAQ^R183Q; 24-hour treatment
  fold less sensitive than CYSLTR2^L129Q and GNAQ^G48V mutants (IP1 accumulation): approximately 10 fold
  inhibition of IP1 accumulation: completely inhibited
GNAQ^R183Q; 3 hours of treatment
  sensitivity of IP1 accumulation after 3 hours versus 24 hours: less sensitive
GNAQ^Q209L; 24-hour treatment
  fold less sensitive than CYSLTR2^L129Q and GNAQ^G48V mutants (IP1 accumulation): approximately 10 fold
  inhibition of IP1 accumulation: completely inhibited
GNAQ^Q209L; 3 hours of treatment
  sensitivity of IP1 accumulation after 3 hours versus 24 hours: less sensitive
GNAQ^Q209L; 3 hours of treatment, even at high doses of YM
  inhibition of IP1 accumulation: only partially inhibited
CYSLTR2^L129Q
  inhibition of IP1 accumulation: completely inhibited
  relative sensitivity to YM (IP1 accumulation): most sensitive
